Source: the NIST ThermoML archive (doi:10.1016/j.fluid.2014.12.023)
“And” between values parts separate entries of the source, which are not always exact repeats. Equal values may be shown once. Numbers after ± are expanded uncertainties.

Conditions: Liquid, Transpiration method

Fc1cccc(Br)c1 [1-bromo-3-fluorobenzene]
vapor or sublimation pressure (280.8 K): 0.2278 ± 0.017 kPa | vapor or sublimation pressure (283.4 K): 0.2912 ± 0.02 kPa | vapor or sublimation pressure (283.7 K): 0.2875 ± 0.02 kPa | vapor or sublimation pressure (284.7 K): 0.3109 ± 0.022 kPa | vapor or sublimation pressure (286.6 K): 0.3559 ± 0.025 kPa | vapor or sublimation pressure (287.7 K): 0.3711 ± 0.026 kPa | vapor or sublimation pressure (288.7 K): 0.403 ± 0.029 kPa | vapor or sublimation pressure (289.4 K): 0.4245 ± 0.03 kPa | vapor or sublimation pressure (292.5 K): 0.5168 ± 0.036 kPa | vapor or sublimation pressure (293.4 K): 0.5476 ± 0.039 kPa | vapor or sublimation pressure (295.3 K): 0.6202 ± 0.044 kPa | vapor or sublimation pressure (298.4 K): 0.7441 ± 0.052 kPa | vapor or sublimation pressure (299.7 K): 0.8106 ± 0.057 kPa | vapor or sublimation pressure (301.5 K): 0.8784 ± 0.062 kPa | vapor or sublimation pressure (302.4 K): 0.9483 ± 0.067 kPa | vapor or sublimation pressure (305.8 K): 1.125 ± 0.079 kPa | vapor or sublimation pressure (308.5 K): 1.312 ± 0.092 kPa | vapor or sublimation pressure (311.6 K): 1.541 ± 0.11 kPa | vapor or sublimation pressure (314.6 K): 1.819 ± 0.13 kPa | vapor or sublimation pressure (317.6 K): 2.138 ± 0.15 kPa

Fc1ccccc1I [1,2-fluoroiodobenzene]
vapor or sublimation pressure (282.8 K): 0.0397 ± 0.0028 kPa | vapor or sublimation pressure (285.7 K): 0.0483 ± 0.0035 kPa and 0.0493 ± 0.0035 kPa | vapor or sublimation pressure (288.7 K): 0.0638 ± 0.0046 kPa | vapor or sublimation pressure (289.5 K): 0.0686 ± 0.0049 kPa | vapor or sublimation pressure (292.5 K): 0.0843 ± 0.006 kPa | vapor or sublimation pressure (296.4 K): 0.1111 ± 0.0079 kPa | vapor or sublimation pressure (298.4 K): 0.1269 ± 0.0091 kPa | vapor or sublimation pressure (301.4 K): 0.1633 ± 0.012 kPa | vapor or sublimation pressure (303.4 K): 0.1819 ± 0.013 kPa | vapor or sublimation pressure (306.4 K): 0.2238 ± 0.016 kPa | vapor or sublimation pressure (308.4 K): 0.25 ± 0.018 kPa | vapor or sublimation pressure (311.3 K): 0.2939 ± 0.021 kPa | vapor or sublimation pressure (313.4 K): 0.3289 ± 0.024 kPa | vapor or sublimation pressure (316.4 K): 0.4201 ± 0.03 kPa | vapor or sublimation pressure (317.5 K): 0.4348 ± 0.031 kPa | vapor or sublimation pressure (318.4 K): 0.4686 ± 0.033 kPa | vapor or sublimation pressure (321.4 K): 0.5638 ± 0.04 kPa | vapor or sublimation pressure (323.5 K): 0.6216 ± 0.044 kPa | vapor or sublimation pressure (326.5 K): 0.7364 ± 0.052 kPa | vapor or sublimation pressure (327.5 K): 0.7616 ± 0.054 kPa | vapor or sublimation pressure (328.6 K): 0.8217 ± 0.058 kPa

Fc1ccccc1Cl [1-chloro-2-fluorobenzene]
vapor or sublimation pressure (277.5 K): 0.3411 ± 0.024 kPa | vapor or sublimation pressure (280.6 K): 0.4191 ± 0.03 kPa and 0.4312 ± 0.031 kPa | vapor or sublimation pressure (283.5 K): 0.5098 ± 0.036 kPa | vapor or sublimation pressure (283.6 K): 0.5041 ± 0.036 kPa | vapor or sublimation pressure (286.4 K): 0.6241 ± 0.044 kPa | vapor or sublimation pressure (286.6 K): 0.6176 ± 0.044 kPa | vapor or sublimation pressure (289.5 K): 0.7705 ± 0.054 kPa | vapor or sublimation pressure (289.6 K): 0.7749 ± 0.055 kPa | vapor or sublimation pressure (292.4 K): 0.8974 ± 0.063 kPa | vapor or sublimation pressure (295.7 K): 1.093 ± 0.077 kPa | vapor or sublimation pressure (298.5 K): 1.268 ± 0.09 kPa | vapor or sublimation pressure (301.3 K): 1.521 ± 0.11 kPa | vapor or sublimation pressure (304.1 K): 1.795 ± 0.13 kPa | vapor or sublimation pressure (307.4 K): 2.169 ± 0.15 kPa | vapor or sublimation pressure (310.1 K): 2.497 ± 0.18 kPa | vapor or sublimation pressure (313.6 K): 3.121 ± 0.22 kPa | vapor or sublimation pressure (316.3 K): 3.551 ± 0.25 kPa | vapor or sublimation pressure (319.2 K): 4.226 ± 0.3 kPa

Fc1cccc(Cl)c1 [1-chloro-3-fluorobenzene]
vapor or sublimation pressure (275.8 K): 0.4412 ± 0.031 kPa | vapor or sublimation pressure (280.1 K): 0.5829 ± 0.041 kPa | vapor or sublimation pressure (283.1 K): 0.7061 ± 0.05 kPa | vapor or sublimation pressure (286 K): 0.8315 ± 0.059 kPa | vapor or sublimation pressure (288.9 K): 1.031 ± 0.073 kPa | vapor or sublimation pressure (292 K): 1.237 ± 0.087 kPa | vapor or sublimation pressure (295.1 K): 1.491 ± 0.11 kPa | vapor or sublimation pressure (298.1 K): 1.767 ± 0.12 kPa | vapor or sublimation pressure (301 K): 2.096 ± 0.15 kPa | vapor or sublimation pressure (304.1 K): 2.469 ± 0.17 kPa | vapor or sublimation pressure (307.3 K): 2.963 ± 0.21 kPa | vapor or sublimation pressure (310.3 K): 3.568 ± 0.25 kPa | vapor or sublimation pressure (313.3 K): 4.106 ± 0.29 kPa | vapor or sublimation pressure (316.5 K): 4.927 ± 0.35 kPa | vapor or sublimation pressure (319.5 K): 5.737 ± 0.4 kPa

Fc1ccccc1Br [1-bromo-2-fluorobenzene]
vapor or sublimation pressure (278.5 K): 0.1247 ± 0.0092 kPa | vapor or sublimation pressure (279.4 K): 0.1385 ± 0.0098 kPa | vapor or sublimation pressure (280.6 K): 0.1422 ± 0.01 kPa | vapor or sublimation pressure (282.3 K): 0.1684 ± 0.012 kPa | vapor or sublimation pressure (282.5 K): 0.1604 ± 0.011 kPa | vapor or sublimation pressure (283.4 K): 0.1716 ± 0.012 kPa | vapor or sublimation pressure (284.5 K): 0.1843 ± 0.013 kPa | vapor or sublimation pressure (285.5 K): 0.2081 ± 0.015 kPa | vapor or sublimation pressure (288.7 K): 0.262 ± 0.018 kPa | vapor or sublimation pressure (291.7 K): 0.3115 ± 0.022 kPa | vapor or sublimation pressure (294.5 K): 0.3837 ± 0.027 kPa | vapor or sublimation pressure (297.5 K): 0.4636 ± 0.033 kPa | vapor or sublimation pressure (300.3 K): 0.5578 ± 0.039 kPa | vapor or sublimation pressure (303.5 K): 0.6675 ± 0.047 kPa | vapor or sublimation pressure (306.6 K): 0.8 ± 0.057 kPa | vapor or sublimation pressure (309.5 K): 0.944 ± 0.067 kPa | vapor or sublimation pressure (312.6 K): 1.141 ± 0.081 kPa | vapor or sublimation pressure (315.4 K): 1.338 ± 0.095 kPa | vapor or sublimation pressure (318.6 K): 1.61 ± 0.11 kPa | vapor or sublimation pressure (321.4 K): 1.858 ± 0.13 kPa | vapor or sublimation pressure (324.3 K): 2.174 ± 0.15 kPa

Fc1cccc(I)c1 [1,3-fluoroiodobenzene]
vapor or sublimation pressure (275.2 K): 0.0326 ± 0.0023 kPa | vapor or sublimation pressure (280.4 K): 0.0474 ± 0.0034 kPa | vapor or sublimation pressure (283.4 K): 0.0571 ± 0.004 kPa | vapor or sublimation pressure (283.8 K): 0.058 ± 0.0041 kPa | vapor or sublimation pressure (284.9 K): 0.0625 ± 0.0045 kPa | vapor or sublimation pressure (286.8 K): 0.0746 ± 0.0053 kPa | vapor or sublimation pressure (288.2 K): 0.082 ± 0.0058 kPa | vapor or sublimation pressure (288.7 K): 0.0861 ± 0.0061 kPa and 0.0802 ± 0.0058 kPa | vapor or sublimation pressure (290.7 K): 0.0986 ± 0.007 kPa | vapor or sublimation pressure (292.6 K): 0.1122 ± 0.0079 kPa | vapor or sublimation pressure (293.2 K): 0.1154 ± 0.008 kPa | vapor or sublimation pressure (293.6 K): 0.1137 ± 0.008 kPa | vapor or sublimation pressure (296.7 K): 0.1436 ± 0.01 kPa | vapor or sublimation pressure (297.6 K): 0.1513 ± 0.011 kPa and 0.1481 ± 0.011 kPa | vapor or sublimation pressure (300.6 K): 0.184 ± 0.013 kPa | vapor or sublimation pressure (302.5 K): 0.2085 ± 0.015 kPa | vapor or sublimation pressure (305.6 K): 0.256 ± 0.018 kPa | vapor or sublimation pressure (307.5 K): 0.2849 ± 0.02 kPa | vapor or sublimation pressure (307.6 K): 0.2932 ± 0.021 kPa and 0.3026 ± 0.021 kPa | vapor or sublimation pressure (310.6 K): 0.364 ± 0.026 kPa and 0.3464 ± 0.025 kPa | vapor or sublimation pressure (312.5 K): 0.4094 ± 0.029 kPa and 0.3873 ± 0.027 kPa | vapor or sublimation pressure (315.6 K): 0.4642 ± 0.033 kPa | vapor or sublimation pressure (315.7 K): 0.4836 ± 0.034 kPa | vapor or sublimation pressure (317.6 K): 0.516 ± 0.036 kPa | vapor or sublimation pressure (317.7 K): 0.5427 ± 0.038 kPa | vapor or sublimation pressure (319.6 K): 0.5968 ± 0.042 kPa

Fc1ccc(Br)cc1 [1-bromo-4-fluorobenzene]
vapor or sublimation pressure (278.2 K): 0.1662 ± 0.012 kPa | vapor or sublimation pressure (281.3 K): 0.2043 ± 0.015 kPa | vapor or sublimation pressure (283.5 K): 0.2384 ± 0.017 kPa | vapor or sublimation pressure (284.4 K): 0.2446 ± 0.017 kPa | vapor or sublimation pressure (286.5 K): 0.285 ± 0.02 kPa | vapor or sublimation pressure (287.3 K): 0.2956 ± 0.021 kPa | vapor or sublimation pressure (289.4 K): 0.3532 ± 0.025 kPa | vapor or sublimation pressure (290.2 K): 0.3668 ± 0.026 kPa | vapor or sublimation pressure (292.4 K): 0.4087 ± 0.029 kPa | vapor or sublimation pressure (295.4 K): 0.5144 ± 0.036 kPa | vapor or sublimation pressure (296.1 K): 0.5283 ± 0.037 kPa | vapor or sublimation pressure (298.3 K): 0.6028 ± 0.043 kPa | vapor or sublimation pressure (300.1 K): 0.6822 ± 0.048 kPa | vapor or sublimation pressure (301.4 K): 0.7138 ± 0.05 kPa | vapor or sublimation pressure (304.4 K): 0.8461 ± 0.06 kPa | vapor or sublimation pressure (307.6 K): 0.9874 ± 0.07 kPa | vapor or sublimation pressure (310.5 K): 1.204 ± 0.085 kPa | vapor or sublimation pressure (313.4 K): 1.41 ± 0.1 kPa | vapor or sublimation pressure (316.4 K): 1.673 ± 0.12 kPa

Fc1ccc(I)cc1 [1,4-fluoroiodobenzene]
vapor or sublimation pressure (276.5 K): 0.0329 ± 0.0024 kPa | vapor or sublimation pressure (279.7 K): 0.04219 ± 0.003 kPa | vapor or sublimation pressure (283.9 K): 0.05918 ± 0.0042 kPa and 0.0586 ± 0.0042 kPa | vapor or sublimation pressure (286.5 K): 0.07144 ± 0.0051 kPa | vapor or sublimation pressure (289.4 K): 0.08532 ± 0.0061 kPa and 0.08615 ± 0.0062 kPa | vapor or sublimation pressure (293.3 K): 0.1163 ± 0.0083 kPa | vapor or sublimation pressure (298.1 K): 0.1638 ± 0.012 kPa | vapor or sublimation pressure (303 K): 0.2198 ± 0.016 kPa | vapor or sublimation pressure (308.1 K): 0.3015 ± 0.021 kPa | vapor or sublimation pressure (312.9 K): 0.4121 ± 0.029 kPa | vapor or sublimation pressure (317.9 K): 0.547 ± 0.038 kPa

Fc1ccc(Cl)cc1 [1-chloro-4-fluorobenzene]
vapor or sublimation pressure (277.6 K): 0.6008 ± 0.043 kPa | vapor or sublimation pressure (280.6 K): 0.7421 ± 0.053 kPa | vapor or sublimation pressure (283.2 K): 0.8729 ± 0.062 kPa | vapor or sublimation pressure (286.2 K): 1.057 ± 0.075 kPa | vapor or sublimation pressure (289.3 K): 1.259 ± 0.089 kPa | vapor or sublimation pressure (292.4 K): 1.527 ± 0.11 kPa | vapor or sublimation pressure (295.7 K): 1.87 ± 0.13 kPa | vapor or sublimation pressure (296.9 K): 1.982 ± 0.14 kPa | vapor or sublimation pressure (299.8 K): 2.405 ± 0.17 kPa | vapor or sublimation pressure (302.7 K): 2.858 ± 0.2 kPa | vapor or sublimation pressure (305.7 K): 3.285 ± 0.23 kPa | vapor or sublimation pressure (308.4 K): 3.855 ± 0.27 kPa | vapor or sublimation pressure (311.6 K): 4.575 ± 0.32 kPa | vapor or sublimation pressure (314.3 K): 5.275 ± 0.37 kPa | vapor or sublimation pressure (317.6 K): 6.059 ± 0.43 kPa | vapor or sublimation pressure (320.4 K): 7.146 ± 0.5 kPa | vapor or sublimation pressure (323.5 K): 8.51 ± 0.6 kPa
